IC50 data for ten compounds are collected here from publication PMC9736157 (Molecules, 2022).

One assay has as its target T1, B-RAF (V600E) (Homo sapiens, UniProt P15056, V600E).
T1 construct: purchased BPS Bioscience
Briefly: BRAF^V600E inhibition assay (B-RAF (V600E) Kinase Assay Kit, Kinase-Glo MAX). The class given is biochemical. Conditions: isolated BRAF^V600E, ATP 10 μM, 30 °C, 45 min; three experiments in duplicate; read-out: BRAF (V600E) Kinase Activity IC50 (nM ± SEM). Here is the method:
In a 96-well plate, the different inhibitor solutions in DMSO were mixed with Buffer, ATP (10 μM) and Raf substrate. […] After a 15 min delay to equilibrate plate temperature, 50 μL of Kinase-Glo Max was added in each well, and the luminescence was measured according to supplier’s instruction. The results, reported as IC50 ± S.E.M., were calculated with GrapPad Prism 7 and derive from three different experiments run in duplicate.
(Kinase-Glo reads ATP consumption through a luciferase reaction.)

In a further assay the test system is A375 melanoma cell line. Briefly: Antiproliferative activity, CellTiter-Glo, A375. The class given is cell-based. The settings on record: Homo sapiens, A-375, A375, 72 h. How it is done:
Based on the previous preliminary tests, we sought to investigate the ability of synthesized compounds 5–15 and reference 1 in inhibiting the proliferation of BRAF^V600E mutant cancer cells. A first screening was conducted in A375 melanoma cell lines (Table 1, Figure S2). Encorafenib was employed for comparison.
(§1) The ability of compounds 5, 10, 11, 15–selected based on their chemical diversity–to inhibit cell proliferation was then tested both in A375 and in Colo205 cancer cell lines. […] P5B was obtained by joining the BRAF inhibitor BI 882370 to pomalidomide through a five PEG unit spacer (Figure S3). In compound P5B, the linker length was of 17 atoms, the same length of the spacer used to generate our compound 10. A375 and Colo205 cells were treated for 72 h with compounds 5, 10, 11, 15, and P5B, and the antiproliferative activity was measured by a luminescent ATP-based assay, which determines the number of viable cells based on their metabolic activity. […] However, P5B was more efficient in inhibiting tumor cell viability in comparison with the other selected compounds.
(§2) Cell viability was evaluated by means of CellTiter-Glo Luminescent Assay (Promega), which allows users to measure the ATP in the cell supernatant. The assay was performed according to manufacturer’s instructions. In brief, 4.10^3 A375 or Colo205 were seeded into 96-well plates and allowed to adhere at the wall overnight. Cells were treated for 72 h with BRAF inhibitor compounds. Then, 90 µL of the cell culture medium was transferred in a white 96-well plate, to which 10 µL of CellTiter-Glo was added before measurement of luminescence. Luminescence was measured by the SPARK M10 (Tecan, Männedorf, Switzerland) plate reader.

The next assay concerns Colo205 cell line. Briefly: Antiproliferative activity, CellTiter-Glo, Colo205. The format is cell-based. The settings on record: Homo sapiens, COLO 205; Colo205, 72 h (Figure 6b); read-out: Antiproliferative activity IC50 (nM ± SEM). How it is done: as §1, §2
[1] abbreviates: first screening (Table 1), read-out: Antiproliferative Activity IC50 ± SEM.
[2] abbreviates: second set of experiments (Figure 6a), read-out: Antiproliferative activity IC50 (nM ± SEM).

Like-named read-outs stand apart in the source and are kept apart here. Some results are limits rather than exact numbers.

T1 sequence (P15056 whole entry V600E): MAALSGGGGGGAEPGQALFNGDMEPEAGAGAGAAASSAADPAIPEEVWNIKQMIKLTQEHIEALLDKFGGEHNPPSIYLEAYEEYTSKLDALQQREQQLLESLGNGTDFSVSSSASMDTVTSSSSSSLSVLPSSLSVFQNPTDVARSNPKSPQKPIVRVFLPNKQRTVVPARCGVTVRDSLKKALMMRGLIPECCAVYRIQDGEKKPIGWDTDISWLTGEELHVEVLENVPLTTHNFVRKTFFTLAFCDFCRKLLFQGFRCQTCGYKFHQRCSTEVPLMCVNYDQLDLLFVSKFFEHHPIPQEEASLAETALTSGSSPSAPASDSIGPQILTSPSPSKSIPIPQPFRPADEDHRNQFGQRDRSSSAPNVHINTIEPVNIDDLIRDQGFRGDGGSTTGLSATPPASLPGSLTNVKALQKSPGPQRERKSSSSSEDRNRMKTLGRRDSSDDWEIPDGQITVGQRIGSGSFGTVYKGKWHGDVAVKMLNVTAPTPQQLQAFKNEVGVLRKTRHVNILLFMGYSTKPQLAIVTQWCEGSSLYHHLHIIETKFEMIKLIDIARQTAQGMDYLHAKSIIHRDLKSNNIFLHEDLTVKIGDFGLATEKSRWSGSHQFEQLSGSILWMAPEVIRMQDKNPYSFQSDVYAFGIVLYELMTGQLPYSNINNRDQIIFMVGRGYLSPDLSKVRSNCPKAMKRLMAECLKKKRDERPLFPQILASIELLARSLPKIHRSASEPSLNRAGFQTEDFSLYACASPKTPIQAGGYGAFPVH

On to `Cc1ncsc1-c1ccc(CNC(=O)[C@@H]2C[C@@H](O)CN2C(=O)[C@@H](NC(=O)COCCOCCOCCC(=O)N[C@@H](C)CNc2nccc(-c3cn(C(C)C)nc3-c3cc(Cl)cc(NS(C)(=O)=O)c3F)n2)C(C)(C)C)cc1` [Compound 15, (2S,4R)-1-((2S,17S)-2-(tert-butyl)-18-((4-(3-(5-chloro-2-fluoro-3-(methylsulfonamido)phenyl)-1-isopropyl-1H-pyrazol-4-yl)pyrimidin-2-yl)amino)-17-methyl-4,15-dioxo-6,9,12-trioxa-3,16-diazaoctadecanoyl)-4-hydroxy-N-(4-(4-methylthiazol-5-yl)benzyl)pyrrolidine-2-carboxamide], for which the IC50 (commonly the midpoint of a concentration-inhibition curve) is 78 ± 9 nM on B-RAF (V600E), 3380 ± 172 nM with A375 melanoma cell line (setting [1]), 3830 ± 784 nM with A375 melanoma cell line (setting [2]) and 1230 ± 543 nM in the assay on Colo205 cell line.
Take `CC(C)n1cc(-c2ccnc(NC[C@H](C)NC(=O)CCOCCOCCOCC(=O)Nc3cccc4c3CN(C3CCC(=O)NC3=O)C4=O)n2)c(-c2cc(Cl)cc(NS(C)(=O)=O)c2F)n1` (stereo partly drawn) [Compound 14, N-((S)-1-((4-(3-(5-chloro-2-fluoro-3-(methylsulfonamido)phenyl)-1-isopropyl-1H-pyrazol-4-yl)pyrimidin-2-yl)amino)propan-2-yl)-3-(2-(2-(2-((2-(2,6-dioxopiperidin-3-yl)-1-oxoisoindolin-4-yl)amino)-2-oxoethoxy)ethoxy)ethoxy)propenamide]: the IC50 is 88 ± 17 nM at B-RAF (V600E) and 1046 ± 0.75 nM in the assay with A375 melanoma cell line (setting [1]).
Consider `CC(C)n1cc(-c2ccnc(NC[C@H](C)NC(=O)CCOCCOCCNc3cccc4c3C(=O)N(C3CCC(=O)NC3=O)C4=O)n2)c(-c2cc(Cl)cc(NS(C)(=O)=O)c2F)n1` (stereo partly drawn) [Compound 7, N-((S)-1-((4-(3-(5-chloro-2-fluoro-3-(methylsulfonamido)phenyl)-1-isopropyl-1H-pyrazol-4-yl)pyrimidin-2-yl)amino)propan-2-yl)-3-(2-(2-((2-(2,6-dioxopiperidin-3-yl)-1,3-dioxoisoindolin-4-yl)amino)ethoxy)ethoxy)propanamide], for which the figures for the IC50 on B-RAF (V600E) and in the assay on A375 melanoma cell line (setting [1]) were 66 ± 15 nM and 520 ± 80.5 nM, respectively.
With `CC(C)n1cc(-c2ccnc(NC[C@H](C)NC(=O)CCOCCNc3cccc4c3C(=O)N(C3CCC(=O)NC3=O)C4=O)n2)c(-c2cc(Cl)cc(NS(C)(=O)=O)c2F)n1` (stereo partly drawn) [Compound 6, N-((S)-1-((4-(3-(5-chloro-2-fluoro-3-(methylsulfonamido)phenyl)-1-isopropyl-1H-pyrazol-4-yl)pyrimidin-2-yl)amino)propan-2-yl)-3-(2-((2-(2,6-dioxopiperidin-3-yl)-1,3-dioxoisoindolin-4-yl)amino)ethoxy)propanamide], the results for the IC50 at B-RAF (V600E) and in the assay with A375 melanoma cell line (setting [1]) were 52 ± 12 nM and 406.1 ± 2.4 nM, respectively.
Take `CC(C)n1cc(-c2ccnc(NC[C@H](C)NC(=O)CCOCCOCCOCCOCCNc3cccc4c3C(=O)N(C3CCC(=O)NC3=O)C4=O)n2)c(-c2cc(Cl)cc(NS(C)(=O)=O)c2F)n1` (stereo partly drawn) [Compound 9, N-((S)-1-((4-(3-(5-chloro-2-fluoro-3-(methylsulfonamido)phenyl)-1-isopropyl-1H-pyrazol-4-yl)pyrimidin-2-yl)amino)propan-2-yl)-1-((2-(2,6-dioxopiperidin-3-yl)-1,3-dioxoisoindolin-4-yl)amino)-3,6,9,12-tetraoxapentadecan-15-amide]: the IC50 amounted to 67 ± 16 nM on B-RAF (V600E) and 2000 ± 31.8 nM in the assay on A375 melanoma cell line (setting [1]).
The corresponding values for `CC(C)n1cc(-c2ccnc(NC[C@H](C)NC(=O)CCOCCOCCn3cc(COCCOCCNc4cccc5c4C(=O)N(C4CCC(=O)NC4=O)C5=O)nn3)n2)c(-c2cc(Cl)cc(NS(C)(=O)=O)c2F)n1` (stereo partly shown) [Compound 13] are 58 ± 19 nM and 4100 ± 71.5 nM.
For `COCCOCCOCCOCCC(=O)N[C@@H](C)CNc1nccc(-c2cn(C(C)C)nc2-c2cc(Cl)cc(NS(C)(=O)=O)c2F)n1` [Compound 54, (S)-N-(1-((4-(3-(5-chloro-2-fluoro-3-(methylsulfonamido)phenyl)-1-isopropyl-1H-pyrazol-4-yl)pyrimidin-2-yl)amino)propan-2-yl)-2,5,8,11-tetraoxatetradecan-14-amide], on B-RAF (V600E), the IC50 came out at 80 ± 7 nM.
For the compound `CC(C)n1cc(-c2ccnc(NC[C@H](C)NC(=O)CCCNc3cccc4c3C(=O)N(C3CCC(=O)NC3=O)C4=O)n2)c(-c2cc(Cl)cc(NS(C)(=O)=O)c2F)n1` (stereo partly drawn) [Compound 5, N-((S)-1-((4-(3-(5-chloro-2-fluoro-3-(methylsulfonamido)phenyl)-1-isopropyl-1H-pyrazol-4-yl)pyrimidin-2-yl)amino)propan-2-yl)-4-((2-(2,6-dioxopiperidin-3-yl)-1,3-dioxoisoindolin-4-yl)amino)butanamide], the IC50 worked out at 61 ± 10 nM on B-RAF (V600E), 2740 ± 71 nM in the assay on A375 melanoma cell line (setting [1]), 1320 ± 304 nM with A375 melanoma cell line (setting [2]) and 280 ± 24 nM in the assay with Colo205 cell line.
Consider `CC(C)n1cc(-c2ccnc(NC[C@H](C)NC(=O)CCOCCOCCn3cc(COCCC(=O)Nc4cccc5c4C(=O)N(C4CCC(=O)NC4=O)C5=O)nn3)n2)c(-c2cc(Cl)cc(NS(C)(=O)=O)c2F)n1` (stereo partly drawn) [Compound 12, N-((S)-1-((4-(3-(5-chloro-2-fluoro-3-(methylsulfonamido)phenyl)-1-isopropyl-1H-pyrazol-4-yl)pyrimidin-2-yl)amino)propan-2-yl)-3-(2-(2-(4-((3-((2-(2,6-dioxopiperidin-3-yl)-1,3-dioxoisoindolin-4-yl)amino)-3-oxopropoxy)methyl)-1H-1,2,3-triazol-1-yl)ethoxy)ethoxy)propanamide], for which the IC50 at B-RAF (V600E) is 40 ± 4 nM; in the assay with A375 melanoma cell line (setting [1]) it was 732 ± 16 nM.
As to `COC(=O)N[C@@H](C)CNc1nccc(-c2cn(C(C)C)nc2-c2cc(Cl)cc(NS(C)(=O)=O)c2F)n1` [encorafenib (1), encorafenib, reference compound], the IC50 in the assay with A375 melanoma cell line (setting [1]) is less than 50 nM.
